Assay results as given in ChEMBL document CHEMBL1158294, “Antiplatelet arylnaphthalide lignans from Justicia procumbens” (J Nat Prod, 1996).
pIC50: −log10 of the molar value.

Test system: Platelet
Assay: Inhibition of arachidonic acid-induced platelet aggregation in rabbit […] by turbidimetric method
Assay type: functional, cell-based
Conditions: Oryctolagus cuniculus

SMILES	pIC50
COc1ccc2c(c1)c(CC(=O)O)c(C)n2C(=O)c1ccc(Cl)cc1 [INDOMETHACIN]	6.68
COc1cc2c(OC)c3c(c(-c4ccc5c(c4)OCO5)c2cc1OC)COC3=O [NEOJUSTICIN B]	4.29
COc1cc2c(OC)c3c(c(-c4ccc5c(c4)OCO5)c2cc1OC)C(=O)OC3 [JUSTICIDIN A]	4.50
CC(=O)Oc1ccccc1C(=O)O [ASPIRIN]	4.69
O=C1OCc2c1c(-c1ccc3c(c1)OCO3)c1cc3c(cc1c2O)OCO3 [TAIWANIN E]	5.10

Next, values leading:

pIC50	SMILES
5.77	COc1c2c(c(-c3ccc4c(c3)OCO4)c3cc4c(cc13)OCO4)C(=O)OC2 [TAIWANIN E METHYL ETHER]
5.96	COc1c2c(c(-c3ccc4c(c3)OCO4)c3cc4c(cc13)OCO4)COC2=O [NEOJUSTICIN A]
4.73	COc1ccc(-c2c3c(c(OC)c4cc5c(cc24)OCO5)COC3=O)cc1OC [CHINENSINAPHTHOL METHYL ETHER]
< 4.00	COc1cc2c(O)c3c(c(-c4ccc5c(c4)OCO5)c2cc1OC)C(=O)OC3 [DIPHYLLIN]
